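How tested: cells in 96-well plates exposed to compound for 48 hours at five concentrations. TGI is the concentration that stops growth completely.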
Tests used:
Test in all cases: inhibition of tumour cell growth, NCI panel, 48 h
M19-MEL melanoma = test system: M19-MEL melanoma
ACHN renal = test system: ACHN renal
KM20L2 colon = test system: KM20L2 colon
U251 CNS = test system: U251 CNS
MALME-3M melanoma = test system: MALME-3M melanoma
HL-60(TB) leukemia = test system: HL-60(TB) leukemia
OVCAR-5 ovarian = test system: OVCAR-5 ovarian
786-0 renal = test system: 786-0 renal
MOLT-4 leukemia = test system: MOLT-4 leukemia
A498 renal = test system: A498 renal
LXFL 529 NSCLC = test system: LXFL 529 NSCLC
OVCAR-4 ovarian = test system: OVCAR-4 ovarian
HCC-2998 colon = test system: HCC-2998 colon
UACC-62 melanoma = test system: UACC-62 melanoma
OVCAR-8 ovarian = test system: OVCAR-8 ovarian
LOX IMVI melanoma = test system: LOX IMVI melanoma
SNB-75 CNS = test system: SNB-75 CNS
SR leukemia = test system: SR leukemia
A549 NSCLC = test system: A549 NSCLC
COLO 205 colon = test system: COLO 205 colon
NCI-H23 lung = test system: NCI-H23 lung
HOP-62 NSCLC = test system: HOP-62 NSCLC
SW-620 colon = test system: SW-620 colon
XF 498 CNS = test system: XF 498 CNS
DMS 114 small cell lung = test system: DMS 114 small cell lung
SK-OV-3 ovarian = test system: SK-OV-3 ovarian
SK-MEL-28 melanoma = test system: SK-MEL-28 melanoma
HOP-18 NSCLC = test system: HOP-18 NSCLC
K-562 leukemia = test system: K-562 leukemia
CAKI-1 renal = test system: CAKI-1 renal
DMS 273 small cell lung = test system: DMS 273 small cell lung
SNB-78 CNS = test system: SNB-78 CNS
OVCAR-3 ovarian = test system: OVCAR-3 ovarian
RXF-631 renal = test system: RXF-631 renal
NCI-H522 lung = test system: NCI-H522 lung
SF-268 CNS = test system: SF-268 CNS
SN12C renal = test system: SN12C renal
EKVX NSCLC = test system: EKVX NSCLC
M14 melanoma = test system: M14 melanoma
NCI-H460 lung = test system: NCI-H460 lung
NCI-H226 lung = test system: NCI-H226 lung
KM12 colon = test system: KM12 colon
SF-539 CNS = test system: SF-539 CNS
RPMI-8226 leukemia = test system: RPMI-8226 leukemia
IGROV1 ovarian = test system: IGROV1 ovarian
SNB-19 CNS = test system: SNB-19 CNS
HOP-92 NSCLC = test system: HOP-92 NSCLC
DLD-1 colon = test system: DLD-1 colon
TK-10 renal = test system: TK-10 renal
HT29 colon = test system: HT29 colon
SF-295 CNS = test system: SF-295 CNS
CCRF-CEM leukemia = test system: CCRF-CEM leukemia
HCT-15 colon = test system: HCT-15 colon
HCT-116 colon = test system: HCT-116 colon
UO-31 renal = test system: UO-31 renal
SK-MEL-2 melanoma = test system: SK-MEL-2 melanoma
SK-MEL-5 melanoma = test system: SK-MEL-5 melanoma
UACC-257 melanoma = test system: UACC-257 melanoma
RXF 393 renal = test system: RXF 393 renal

CCCCCCCC/C=C1\CCC(CN(C)C)C1=O (stereo unspecified)
TGI (M19-MEL melanoma): 10.5 µM | TGI (ACHN renal): 18.7 µM | TGI (KM20L2 colon): 19.8 µM | TGI (U251 CNS): 4.38 µM | TGI (MALME-3M melanoma): 14.3 µM | TGI (HL-60(TB) leukemia): 22.2 µM | TGI (OVCAR-5 ovarian): 35.5 µM | TGI (786-0 renal): 2.88 µM | TGI (MOLT-4 leukemia): 10.1 µM | TGI (A498 renal): 30.7 µM | TGI (LXFL 529 NSCLC): 3.01 µM | TGI (OVCAR-4 ovarian): 29.1 µM | TGI (HCC-2998 colon): 22 µM | TGI (UACC-62 melanoma): 19.6 µM | TGI (OVCAR-8 ovarian): 9.67 µM | TGI (LOX IMVI melanoma): 4.09 µM | TGI (SNB-75 CNS): 14.1 µM | TGI (SR leukemia): 13.1 µM | TGI (A549 NSCLC): 39.9 µM | TGI (COLO 205 colon): 14.8 µM | TGI (NCI-H23 lung): 24.4 µM | TGI (HOP-62 NSCLC): 24.7 µM | TGI (SW-620 colon): 8.69 µM | TGI (XF 498 CNS): 12.8 µM | TGI (DMS 114 small cell lung): 13.6 µM | TGI (SK-OV-3 ovarian): 30.9 µM | TGI (SK-MEL-28 melanoma): 13.3 µM | TGI (HOP-18 NSCLC): 33.8 µM | TGI (K-562 leukemia): 7.2 µM | TGI (CAKI-1 renal): 10 µM | TGI (DMS 273 small cell lung): 5.12 µM | TGI (SNB-78 CNS): 27.2 µM | TGI (OVCAR-3 ovarian): 22 µM | TGI (RXF-631 renal): 17.9 µM | TGI (NCI-H522 lung): 13.3 µM | TGI (SF-268 CNS): 21.2 µM | TGI (SN12C renal): 14.6 µM | TGI (EKVX NSCLC): 21.6 µM | TGI (M14 melanoma): 12 µM | TGI (NCI-H460 lung): 28.4 µM | TGI (NCI-H226 lung): 37.3 µM | TGI (KM12 colon): 7.09 µM | TGI (SF-539 CNS): 9.32 µM | TGI (RPMI-8226 leukemia): 0.763 µM | TGI (IGROV1 ovarian): 20.8 µM | TGI (SNB-19 CNS): 30.4 µM | TGI (HOP-92 NSCLC): 8.02 µM | TGI (DLD-1 colon): 4.9 µM | TGI (TK-10 renal): 6.03 µM | TGI (HT29 colon): 12.5 µM | TGI (SF-295 CNS): 18 µM | TGI (CCRF-CEM leukemia): 6.96 µM | TGI (HCT-15 colon): 7.5 µM | TGI (HCT-116 colon): 7.34 µM | TGI (UO-31 renal): 25.2 µM | TGI (SK-MEL-2 melanoma): 24.6 µM | TGI (SK-MEL-5 melanoma): 21.7 µM | TGI (UACC-257 melanoma): 16.8 µM

COC(=O)C(=O)C(C(=O)OC)C(=O)C(=O)Nc1c(C)cccc1C (stereo unspecified)
TGI (M19-MEL melanoma): > 100 µM | TGI (ACHN renal): > 100 µM | TGI (KM20L2 colon): > 100 µM | TGI (U251 CNS): > 100 µM | TGI (MALME-3M melanoma): > 100 µM | TGI (HL-60(TB) leukemia): > 100 µM | TGI (OVCAR-5 ovarian): > 100 µM | TGI (786-0 renal): > 100 µM | TGI (MOLT-4 leukemia): > 100 µM | TGI (A498 renal): > 100 µM | TGI (LXFL 529 NSCLC): > 100 µM | TGI (OVCAR-4 ovarian): > 100 µM | TGI (HCC-2998 colon): > 100 µM | TGI (UACC-62 melanoma): > 100 µM | TGI (OVCAR-8 ovarian): > 100 µM | TGI (LOX IMVI melanoma): > 100 µM | TGI (SNB-75 CNS): > 100 µM | TGI (SR leukemia): > 100 µM | TGI (A549 NSCLC): > 100 µM | TGI (COLO 205 colon): > 100 µM | TGI (NCI-H23 lung): > 100 µM | TGI (HOP-62 NSCLC): > 100 µM | TGI (SW-620 colon): > 100 µM | TGI (XF 498 CNS): > 100 µM | TGI (DMS 114 small cell lung): > 100 µM | TGI (SK-OV-3 ovarian): > 100 µM | TGI (SK-MEL-28 melanoma): > 100 µM | TGI (HOP-18 NSCLC): > 100 µM | TGI (K-562 leukemia): > 100 µM | TGI (RXF 393 renal): > 100 µM | TGI (CAKI-1 renal): > 100 µM | TGI (SNB-78 CNS): > 100 µM | TGI (OVCAR-3 ovarian): > 100 µM | TGI (RXF-631 renal): > 100 µM | TGI (NCI-H522 lung): > 100 µM | TGI (SF-268 CNS): > 100 µM | TGI (SN12C renal): > 100 µM | TGI (EKVX NSCLC): > 100 µM | TGI (M14 melanoma): > 100 µM | TGI (NCI-H460 lung): > 100 µM | TGI (NCI-H226 lung): > 100 µM | TGI (KM12 colon): > 100 µM | TGI (SF-539 CNS): > 100 µM | TGI (RPMI-8226 leukemia): > 100 µM | TGI (IGROV1 ovarian): > 100 µM | TGI (SNB-19 CNS): > 100 µM | TGI (HOP-92 NSCLC): > 100 µM | TGI (DLD-1 colon): > 100 µM | TGI (TK-10 renal): > 100 µM | TGI (HT29 colon): > 100 µM | TGI (SF-295 CNS): > 100 µM | TGI (CCRF-CEM leukemia): > 100 µM | TGI (HCT-15 colon): > 100 µM | TGI (HCT-116 colon): > 100 µM | TGI (UO-31 renal): > 100 µM | TGI (SK-MEL-2 melanoma): > 100 µM | TGI (SK-MEL-5 melanoma): > 100 µM | TGI (UACC-257 melanoma): > 100 µM
